Test results as given in patent US7897401B2, “Control of apoptosis by controlling the propensity of ceramide channel formation” (University of Maryland, College Park, priority 2005, dated 2011).

System: ceramide channel in planar phospholipid membrane
Experiment: Electrophysiological recordings on planar phospholipid membranes
Type: biochemical
Text: Planar phospholipid membranes were produced by the monolayer method (Montal, M. et al. (1972) “FORMATION OF BIMOLECULAR MEMBRANES FROM LIPID MONOLAYERs AND A STUDY OF THEIR ELECTRICAL PROPERTIES,” Proc. Natl. Acad. Sci. USA 69:3561-3566) as modified by Colombini, M. (1987) (“CHARACTERIZATION OF CHANNELS ISOLATED FROM PLANT MITOCHONDRIA,” Methods Enzymol. 148:465-475), across a 100-μm-diameter hole in a Saran partition. Monolayers were produced using a solution of 0.5% w/v asolectin, 0.5% w/v DiPhyPC, 0.1% w/v cholesterol in hexane. This technique produces solvent-free phospholipid membranes whose lipid composition (focusing on the polar head-groups) is similar to that found in the mitochondrial outer membrane. It differs from the natural membrane in lacking proteins.
The aqueous solutions contained 1 mM MgCl2, and 5 mM Pipes pH 6.8 with KCl varying from 0.10 M to 1.0 M. The KCl concentration on one side of the membrane, referred to as the “trans” side, was always 0.10 M, whereas the other side (the “cis” side) was adjusted as needed. The transmembrane voltage was electronically clamped and the current through the membrane was recorded. The voltage values indicated are the voltage differences across the membrane cis side minus trans side.
C2-ceramide was stirred into the aqueous solution on each side of the membrane from a solution in DMSO, generally 0.5 mg/ml. Single or multiple additions, typically […] each, yielding a final concentration of 2 μg/ml, were made to achieve a desired level of conductance. Sphingosine additions of 5 μl were made from a solution in DMSO (4 mg/mL) yielding a final concentration of 4 μg/mL.
The observation that anti-apoptotic Bcl-2 family proteins inhibit ceramide channel formation in isolated yeast and rat liver mitochondria correlates with previous reports showing inhibition of ceramide-induced apoptosis in whole cells by these proteins. Thus the results directly tie ceramide-induced mitochondrial-mediated apoptosis with the Bcl-2 family of proteins known to regulate these events. To address whether the antiapoptotic proteins act directly on ceramide channels or work by an indirect action, their affects on ceramide channels in solvent-free planar phospholipid membranes was tested. This is a defined system free of other proteins. When C16-ceramide is added to the aqueous solution bathing one side of a planar phospholipid membrane, it results in discontinuous increases in conductance under voltage-clamp conditions, the defining characteristic of channel formation in membranes. These conductance increments are the enlargement of one ceramide channel rather than the formation of multiple ceramide channels in parallel (Siskind, L. J. et al. (2003) “ENLARGEMENT AND CONTRACTURE OF C2-CERAMIDE CHANNELS,” Biophys. J. 85:1560-1575). […]

CCCCCCCCCCCCC/C=C/[C@@H](O)[C@@H](N)CO [sphingosine]
time at which conductance reached a minimum (C2-ceramide 3 μg/mL, sphingosine 8 μg/mL at t=0, KCl gradient): 20 min | time over which membrane conductance decreased after addition (C2-ceramide channel (9 μg/mL), sphingosine 4 μg/mL cis side, 10 mV): 15 to 20 min | effect on formed ceramide channel (C2-ceramide channel, sphingosine 4 μg/mL, conductance reached level of unmodified membrane): completely disassembled
